Article PMC6409486 (Stem Cell Reports, 2019)
Entries after “also recorded” stand apart in the source; their conditions may differ. Where two headings read alike, the source gives them in different places.

Legend:
[1] = system: mouse ESC-derived MNs; experiment: Compounds on unstressed MNs; type: cell-based; settings: for toxicity to unstressed MNs: absence of any stress; for survival of unstressed MNs: unstressed conditions
[2] = system: mouse ESC-derived MNs; experiment: MN survival with activated BV2 cells; type: cell-based
[3] = system: mouse ESC-derived MNs; experiment: MN survival with DetaNO; type: cell-based
[4] = system: human iPSC-derived MNs; experiment: TUBB3 immunostaining and neurite segmentation of human MNs with DetaNO; type: cell-based
[5] = molecular target: T1, CDK9 (Homo sapiens, UniProt P50750); settings: 10 μM; ref Fabian et al., 2005; http://lincs.hms.harvard.edu/db/datasets/20044/; cited from earlier work
T1 sequence (P50750 whole entry, species assumed): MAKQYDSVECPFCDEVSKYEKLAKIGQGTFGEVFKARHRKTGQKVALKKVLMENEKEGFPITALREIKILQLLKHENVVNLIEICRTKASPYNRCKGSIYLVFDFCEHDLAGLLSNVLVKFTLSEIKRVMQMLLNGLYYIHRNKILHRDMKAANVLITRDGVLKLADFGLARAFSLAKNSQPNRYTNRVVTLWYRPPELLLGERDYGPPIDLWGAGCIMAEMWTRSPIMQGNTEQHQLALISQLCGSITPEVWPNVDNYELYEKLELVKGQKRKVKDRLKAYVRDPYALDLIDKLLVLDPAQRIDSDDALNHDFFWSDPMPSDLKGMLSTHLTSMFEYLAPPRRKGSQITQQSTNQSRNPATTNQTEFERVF
T1 sequence (O60563 whole entry partner, species assumed): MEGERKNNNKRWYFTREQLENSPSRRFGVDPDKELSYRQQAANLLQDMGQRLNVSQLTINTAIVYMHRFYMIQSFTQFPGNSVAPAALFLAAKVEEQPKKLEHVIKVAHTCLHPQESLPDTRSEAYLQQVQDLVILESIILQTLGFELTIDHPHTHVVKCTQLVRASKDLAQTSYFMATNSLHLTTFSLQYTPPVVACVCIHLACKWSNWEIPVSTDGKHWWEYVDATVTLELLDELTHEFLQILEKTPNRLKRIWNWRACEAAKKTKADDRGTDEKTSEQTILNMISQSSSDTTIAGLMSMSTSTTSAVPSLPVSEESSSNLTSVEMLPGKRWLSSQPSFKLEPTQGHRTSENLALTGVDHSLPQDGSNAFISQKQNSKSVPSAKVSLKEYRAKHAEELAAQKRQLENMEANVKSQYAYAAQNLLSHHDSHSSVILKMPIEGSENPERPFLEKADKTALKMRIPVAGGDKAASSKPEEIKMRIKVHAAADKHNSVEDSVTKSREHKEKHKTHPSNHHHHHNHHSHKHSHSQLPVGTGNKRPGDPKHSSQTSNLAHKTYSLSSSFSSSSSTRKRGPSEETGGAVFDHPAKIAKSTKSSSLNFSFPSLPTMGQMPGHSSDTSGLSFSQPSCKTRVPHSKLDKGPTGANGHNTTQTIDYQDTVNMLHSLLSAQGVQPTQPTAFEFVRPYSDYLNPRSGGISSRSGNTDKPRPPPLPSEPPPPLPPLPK

[6] = molecular target: T2, CDK7 (Homo sapiens, UniProt P50613); settings: 10 μM; ref Fabian et al., 2005; http://lincs.hms.harvard.edu/db/datasets/20044/; cited from earlier work
T2 sequence (P50613 whole entry, species assumed): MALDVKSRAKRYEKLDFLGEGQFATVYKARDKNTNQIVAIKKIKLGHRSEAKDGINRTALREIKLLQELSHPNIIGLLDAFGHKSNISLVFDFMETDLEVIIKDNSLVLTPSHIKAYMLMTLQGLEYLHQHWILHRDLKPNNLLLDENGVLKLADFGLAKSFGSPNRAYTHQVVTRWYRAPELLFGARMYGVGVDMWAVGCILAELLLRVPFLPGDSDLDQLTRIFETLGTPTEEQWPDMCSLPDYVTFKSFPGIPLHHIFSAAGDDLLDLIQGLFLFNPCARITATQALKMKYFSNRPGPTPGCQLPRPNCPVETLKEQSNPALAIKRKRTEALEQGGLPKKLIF
T2 sequence (P51946 whole entry partner, species assumed): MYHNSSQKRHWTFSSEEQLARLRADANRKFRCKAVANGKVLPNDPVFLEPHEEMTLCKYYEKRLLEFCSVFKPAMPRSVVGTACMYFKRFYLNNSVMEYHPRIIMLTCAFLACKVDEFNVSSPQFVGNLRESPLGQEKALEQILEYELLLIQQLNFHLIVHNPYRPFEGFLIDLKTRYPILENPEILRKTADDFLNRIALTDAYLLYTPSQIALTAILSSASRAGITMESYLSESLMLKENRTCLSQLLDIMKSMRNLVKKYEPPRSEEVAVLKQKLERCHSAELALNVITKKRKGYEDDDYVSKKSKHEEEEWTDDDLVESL
T2 sequence (P51948 whole entry partner, species assumed): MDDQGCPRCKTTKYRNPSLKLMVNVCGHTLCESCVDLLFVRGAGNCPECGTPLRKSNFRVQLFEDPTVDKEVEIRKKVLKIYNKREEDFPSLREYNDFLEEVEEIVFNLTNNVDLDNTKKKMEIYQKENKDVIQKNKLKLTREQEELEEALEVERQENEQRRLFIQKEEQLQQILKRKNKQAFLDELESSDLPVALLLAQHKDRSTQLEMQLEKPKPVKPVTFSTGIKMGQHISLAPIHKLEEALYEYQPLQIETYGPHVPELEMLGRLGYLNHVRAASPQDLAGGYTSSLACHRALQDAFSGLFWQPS

[7] = molecular target: GSK3β (Homo sapiens, UniProt P49841); settings: 1 μM; ref Chen et al., 2016; cited from earlier work
Sequence of GSK3β (P49841 whole entry, species assumed): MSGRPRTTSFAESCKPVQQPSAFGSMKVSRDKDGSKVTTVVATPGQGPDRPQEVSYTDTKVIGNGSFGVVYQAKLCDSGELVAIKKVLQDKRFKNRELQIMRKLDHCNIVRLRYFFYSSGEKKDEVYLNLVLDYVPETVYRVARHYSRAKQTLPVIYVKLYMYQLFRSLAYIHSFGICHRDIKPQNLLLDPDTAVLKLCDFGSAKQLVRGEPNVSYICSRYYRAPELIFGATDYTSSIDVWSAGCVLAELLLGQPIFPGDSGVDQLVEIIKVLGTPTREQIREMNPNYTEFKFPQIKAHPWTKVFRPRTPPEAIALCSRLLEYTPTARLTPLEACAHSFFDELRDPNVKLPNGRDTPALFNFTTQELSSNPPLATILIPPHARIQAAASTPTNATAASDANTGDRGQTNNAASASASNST

[8] = system: human iPSC-derived MNs; experiment: CellTiter-Glo assay, human MNs stressed with 400 μM DetaNO; type: cell-based
[9] = system: FACS-purified mouse ESC-derived MNs; experiment: FACS-purified MNs cultured with DetaNO in the absence of astrocytes; type: cell-based
[10] = system: iPSC-derived MNs; experiment: Label-free quantitative phosphoproteomics of DetaNO-treated MNs; type: cell-based, human
[11] = molecular target: T2, CDK7; experiment: CDK7 LANCE Assay; settings: biochemical profiling
[12] = molecular target: T1, CDK9; experiment: CDK9 LANCE Assay; settings: biochemical profiling
[13] = system: mouse ESC-derived MNs; experiment: CHIR rescue of CP681301-mediated cytotoxicity; type: cell-based; settings: 5 μM CP681301, increasing concentrations of CHIR (1.25-2.5 µM)

Row | Structure (SMILES) | toxicity to unstressed MNs [1] | protection of MNs from activated BV2-induced degeneration (words) [2] | protection of MNs from DetaNO-induced degeneration (words) [3] | also measured
1 | CN1CC[C@H](c2c(O)cc(O)c3c(=O)cc(-c4ccccc4Cl)oc23)[C@H](O)C1 [flavopiridol] | induced toxicity | robustly protected; also recorded: rescued | robustly protected; also recorded: rescued | –
2 | COc1ccc(F)c(F)c1C(=O)c1cnc(NC2CCN(S(C)(=O)=O)CC2)nc1N [R-547] | – | robustly protected; also recorded: rescued | robustly protected; also recorded: rescued | –
3 | NCCN(CCN)/[N+]([O-])=N/O [DetaNO, diethylenetriamine/NO adduct] | – | – | – | number of TUBB3-positive punctae ([4]; 400 μM DetaNO for 24 h): large increase; area of TUBB3-positive neurite segments ([4]; iPSC-derived MNs, DetaNO): decreased
4 | CC(=O)c1c(C)c2cnc(Nc3ccc(N4CCNCC4)cn3)nc2n(C2CCCC2)c1=O [PD332991] | – | – | not neuroprotective | ATP binding to CDK9 [5]: significantly reduces ATP binding; ATP binding to CDK7 [6]: significantly reduces ATP binding
5 | CCc1cnn2c(NCc3ccc[n+]([O-])c3)cc(N3CCCC[C@H]3CCO)nc12 [dinaciclib] | induced toxicity | robustly protected | robustly protected | reduction of the activity of GSK3β [7]: about 70%; rescue of human MNs from DetaNO stress, CellTiter-Glo ATP levels [8]: potently rescued; protection of FACS-purified MNs from DetaNO-induced degeneration [9]: protected; protection of MNs from activated BV2-induced degeneration (words) ([2]; listed as Dinaciclib): rescued; protection of MNs from DetaNO-induced degeneration (words) ([3]; listed as Dinaciclib): rescued
6 | O=C1Cc2c([nH]c3ccc(Br)cc23)-c2ccccc2N1 [kenpaullone] | no visible toxicity | – | robustly protected | survival of unstressed MNs [1]: small increase in MN survival; phosphopeptide levels of MAPT, MAP1B and MAP2 ([10]; DetaNO-treated iPSC-derived MNs): consistently decreased; phosphorylation levels of CLASP1, CLASP2 and DPYSL2 ([10]; compared with MNs cultured with DetaNO): reduced; inhibition of CDK7 [11]: does not inhibit; protection of human MN neurites from DetaNO, TUBB3 neurite segments ([4]; 400 μM DetaNO, 0.625 μM kenpaullone, two iPSC lines): robustly protected; inhibition of CDK9 [12]: does not inhibit
7 | CC1CCN=C(N)S1 (centres unmarked) [AMT, 2-amino-5,6-dihydro-6-methyl-4H-1,3-thiazine] | – | rescued | – | –
8 | CC(C)(C)c1cnc(CSc2cnc(NC(=O)C3CCNCC3)s2)o1 [BMS-387032] | induced toxicity | robustly protected; also recorded: rescued | robustly protected; also recorded: rescued | –
9 | Cc1c[nH]c(-c2cnc(NCCNc3ccc(C#N)cn3)nc2-c2ccc(Cl)cc2Cl)n1 [CHIR] | did not show any cytotoxic effects | – | failed to protect | survival of unstressed MNs [1]: small, but significant increase; rescue of MNs from CP681301-mediated cytotoxicity [13]: rescued
10 | NS(=O)(=O)c1ccc(Nc2nc(OCC3CCCCC3)c3[nH]cnc3n2)cc1 [NU6102] | – | – | not protective | –
